# According to US20240262826A1, “WILD TYPE KIT INHIBITORS” (Blueprint Medicines Corporation, priority 2022, published 2024):
# pIC50: −log10 of the molar value.
# Target: wild type c-kit (Homo sapiens (Human), UniProt P10721)
# Assay: PathScan phospho c-kit (Tyr719) sandwich ELISA in SCF-stimulated M-07e cells (pKIT assay)
# Format: cell-based
# Details: ELISA assay (values not marked *)
# How it was run: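 Serum- and GM-CSF-starved M-07e cells (4 h) pretreated 60 min at 37 °C with an 8-point compound series in duplicate (0.25% DMSO), then stimulated with human SCF (500 ng/mL stock) 10 min at room temperature. Lysate c-kit Tyr719 phosphorylation quantified by sandwich ELISA with TMB read-out; IC50 from 4-parameter logistic fit.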
# wild type c-kit, sequence (P10721 26-976): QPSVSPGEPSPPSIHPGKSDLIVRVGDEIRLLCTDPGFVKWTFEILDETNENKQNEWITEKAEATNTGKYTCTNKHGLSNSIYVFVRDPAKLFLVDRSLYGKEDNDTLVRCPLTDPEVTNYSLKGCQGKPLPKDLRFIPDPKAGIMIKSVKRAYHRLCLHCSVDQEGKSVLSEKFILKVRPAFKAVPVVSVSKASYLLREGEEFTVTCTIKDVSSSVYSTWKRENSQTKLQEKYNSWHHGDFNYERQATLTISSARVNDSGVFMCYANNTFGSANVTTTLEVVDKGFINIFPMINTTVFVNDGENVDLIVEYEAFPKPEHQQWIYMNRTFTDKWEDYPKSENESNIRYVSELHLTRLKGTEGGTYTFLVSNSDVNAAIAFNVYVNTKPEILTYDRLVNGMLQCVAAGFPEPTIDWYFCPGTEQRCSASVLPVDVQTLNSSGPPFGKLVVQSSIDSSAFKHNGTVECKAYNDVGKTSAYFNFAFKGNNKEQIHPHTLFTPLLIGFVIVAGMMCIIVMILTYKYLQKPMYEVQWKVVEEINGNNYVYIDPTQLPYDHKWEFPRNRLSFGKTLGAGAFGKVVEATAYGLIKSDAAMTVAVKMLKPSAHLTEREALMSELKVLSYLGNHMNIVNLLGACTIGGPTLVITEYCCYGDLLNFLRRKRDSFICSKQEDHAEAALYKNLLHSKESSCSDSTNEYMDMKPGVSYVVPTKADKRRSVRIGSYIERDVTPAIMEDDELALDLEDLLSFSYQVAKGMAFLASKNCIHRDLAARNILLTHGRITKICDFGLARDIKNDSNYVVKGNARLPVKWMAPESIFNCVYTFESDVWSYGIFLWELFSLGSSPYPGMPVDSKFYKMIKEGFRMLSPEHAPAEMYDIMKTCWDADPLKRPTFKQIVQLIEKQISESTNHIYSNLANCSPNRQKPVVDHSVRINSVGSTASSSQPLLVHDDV
row,pIC50,Structure (SMILES)
1,7.32,"Cc1ccc(-c2nnn(C3CN(S(=O)(=O)CCOCC(F)F)C3)n2)cc1NC(=O)c1cnn2ccccc12 [Example 176, N-(5-(2-(1-((2-(2,2-difluoroethoxy)ethyl)sulfonyl)azetidin-3-yl)-2H-tetrazol-5-yl)-2-methylphenyl)pyrazolo[1,5-a]pyridine-3-carboxamide]"
2,8.31,"Cc1ccc(-c2nnn(C3CN(S(=O)(=O)C4CC4)C3)n2)cc1NC(=O)c1cnn2ccccc12 [Example 179, N-(5-(2-(1-(cyclopropylsulfonyl)azetidin-3-yl)-2H-tetrazol-5-yl)-2-methylphenyl)pyrazolo[1,5-a]pyridine-3-carboxamide]"
3,7.87,"Cc1ccc(-c2nnn(C3CN(S(=O)(=O)CC4CCC4)C3)n2)cc1NC(=O)c1cnn2ccccc12 [Example 180, N-(5-(2-(1-((cyclobutylmethyl)sulfonyl)azetidin-3-yl)-2H-tetrazol-5-yl)-2-methylphenyl)pyrazolo[1,5-a]pyridine-3-carboxamide]"
4,6.99,"Cc1ccc(-c2nnn(C3CN(S(=O)(=O)CCCCC#N)C3)n2)cc1NC(=O)c1cnn2ccccc12 [Example 186, N-(5-(2-(1-((4-cyanobutyl)sulfonyl)azetidin-3-yl)-2H-tetrazol-5-yl)-2-methylphenyl)pyrazolo[1,5-a]pyridine-3-carboxamide]"
5,8.04,"Cc1ccc(-c2nnn(C3CN(CC(F)(F)F)C3)n2)cc1NC(=O)c1cnn2ccccc12 [Example 196, N-(2-methyl-5-(2-(1-(2,2,2-trifluoroethyl)azetidin-3-yl)-2H-tetrazol-5-yl)phenyl)pyrazolo[1,5-a]pyridine-3-carboxamide]"
6,7.77,"Cc1ccc(-c2nnn([C@H]3C[C@H](CO)C3)n2)cc1NC(=O)c1cnn2ccccc12 [Example 200, N-(5-(2-((1r,3r)-3-(hydroxymethyl)cyclobutyl)-2H-tetrazol-5-yl)-2-methylphenyl)pyrazolo[1,5-a]pyridine-3-carboxamide]"
7,8.13,"Cn1nnc(-c2ccc(Cl)c(NC(=O)c3cnn4ccc(-c5cnn(CC(C)(C)O)c5)cc34)c2)n1 [Example 210, N-(2-chloro-5-(2-methyl-2H-tetrazol-5-yl)phenyl)-5-(1-(2-hydroxy-2-methylpropyl)-1H-pyrazol-4-yl)pyrazolo[1,5-a]pyridine-3-carboxamide]"
8,8.25,"Cc1nnn(-c2ccc(Cl)c(NC(=O)c3cnn4ccc(-c5cnn(CC(C)(C)O)c5)cc34)c2)n1 [Example 212, N-(2-chloro-5-(5-methyl-2H-tetrazol-2-yl)phenyl)-5-(1-(2-hydroxy-2-methylpropyl)-1H-pyrazol-4-yl)pyrazolo[1,5-a]pyridine-3-carboxamide]"
9,7.80,"Cn1nnc(-c2ccc(F)c(NC(=O)c3cnn4ccc(-c5cnn(CC(C)(C)O)c5)cc34)c2)n1 [Example 213, N-(2-fluoro-5-(2-methyl-2H-tetrazol-5-yl)phenyl)-5-(1-(2-hydroxy-2-methylpropyl)-1H-pyrazol-4-yl)pyrazolo[1,5-a]pyridine-3-carboxamide]"
10,8.57,"Cc1ccc(-c2nnn(C)n2)cc1NC(=O)c1cnn2cc(-c3cnn(CC(C)(C)O)c3)cc(F)c12 [Example 214, 4-fluoro-6-(1-(2-hydroxy-2-methylpropyl)-1H-pyrazol-4-yl)-N-(2-methyl-5-(2-methyl-2H-tetrazol-5-yl)phenyl)pyrazolo[1,5-a]pyridine-3-carboxamide]"
11,7.63,"Cc1cc(F)c(NC(=O)c2cnn3ccc(-c4cnn(CC(C)(C)O)c4)cc23)cc1-c1nnn(C2CC2)n1 [Example 215, N-(5-(2-cyclopropyl-2H-tetrazol-5-yl)-2-fluoro-4-methylphenyl)-5-(1-(2-hydroxy-2-methylpropyl)-1H-pyrazol-4-yl)pyrazolo[1,5-a]pyridine-3-carboxamide]"

# The next lines start with the molecule.
row,Structure (SMILES),pIC50
1,"COC(=O)N1CC(c2cnn(-c3ccc(C)c(NC(=O)c4cnn5cc(N6CCOCC6)ccc45)c3)n2)C1 [Example 160, methyl 3-(2-(4-methyl-3-(6-morpholinopyrazolo[1,5-a]pyridine-3-carboxamido)phenyl)-2H-1,2,3-triazol-4-yl)azetidine-1-carboxylate]",7.83
2,"Cc1ccc(-n2ncc(C3CC(F)(F)C3)n2)cc1NC(=O)c1cnn2ccccc12 [Example 161, N-(5-(4-(3,3-difluorocyclobutyl)-2H-1,2,3-triazol-2-yl)-2-methylphenyl)pyrazolo[1,5-a]pyridine-3-carboxamide]",8.05
3,"COC(=O)N1CC(n2nnc(-c3ccc(Cl)c(NC(=O)c4cnn5cc(N6CCOCC6)ccc45)c3)n2)C1 [Example 163, methyl 3-(5-(4-chloro-3-(6-morpholinopyrazolo[1,5-a]pyridine-3-carboxamido)phenyl)-2H-tetrazol-2-yl)azetidine-1-carboxylate]",8.03
4,"COCCNc1ccc2c(C(=O)Nc3cc(-c4nnn(C5CN(C(=O)OC)C5)n4)ccc3Cl)cnn2c1 [Example 164, Methyl 3-(5-(4-chloro-3-(6-((2-methoxyethyl)amino)pyrazolo[1,5-a]pyridine-3-carboxamido)phenyl)-2H-tetrazol-2-yl)azetidine-1-carboxylate]",8.10
5,"Cc1cc(C2CC2)c(-c2nnn(C3CC(F)(F)C3)n2)cc1NC(=O)c1cnn2ccc(N3CCOCC3)cc12 [Example 166, N-(4-cyclopropyl-5-(2-(3,3-difluorocyclobutyl)-2H-tetrazol-5-yl)-2-methylphenyl)-5-morpholinopyrazolo[1,5-a]pyridine-3-carboxamide]",7.42
6,"O=C(Nc1cc(-c2nnn(C3CC(F)(F)C3)n2)ccc1Cl)c1cnn2ccc(N3CCOCC3)cc12 [Example 169, N-(2-chloro-5-(2-(3,3-difluorocyclobutyl)-2H-tetrazol-5-yl)phenyl)-5-morpholinopyrazolo[1,5-a]pyridine-3-carboxamide]",8.33
7,"Cc1cc(Cl)c(NC(=O)c2cnn3ccc(N4CCOCC4)cc23)cc1-c1nnn(C2CC(F)(F)C2)n1 [Example 170, N-(2-chloro-5-(2-(3,3-difluorocyclobutyl)-2H-tetrazol-5-yl)-4-methylphenyl)-5-morpholinopyrazolo[1,5-a]pyridine-3-carboxamide]",8.20
8,CCCS(=O)(=O)N1CC(n2nnc(-c3ccc(C)c(NC(=O)c4cnn5ccccc45)c3)n2)C1 [Example 174],7.55
9,"Cc1ccc(-c2nnn(C3CN(S(=O)(=O)C4CCOC4)C3)n2)cc1NC(=O)c1cnn2ccccc12 (stereo not shown) [Example 175, N-(2-methyl-5-(2-(1-((tetrahydrofuran-3-yl)sulfonyl)azetidin-3-yl)-2H-tetrazol-5-yl)phenyl)pyrazolo[1,5-a]pyridine-3-carboxamide]",7.11
10,"Cc1ccc(-c2nnn(C3CN(S(=O)(=O)C(C)C)C3)n2)cc1NC(=O)c1cnn2ccccc12 [Example 177, N-(5-(2-(1-(isopropylsulfonyl)azetidin-3-yl)-2H-tetrazol-5-yl)-2-methylphenyl)pyrazolo[1,5-a]pyridine-3-carboxamide]",8.06
11,"Cc1ccc(-c2nnn(C3CN(S(=O)(=O)C4COC4)C3)n2)cc1NC(=O)c1cnn2ccccc12 [Example 183, N-(2-methyl-5-(2-(1-(oxetan-3-ylsulfonyl)azetidin-3-yl)-2H-tetrazol-5-yl)phenyl)pyrazolo[1,5-a]pyridine-3-carboxamide]",7.34
12,"Cc1ccc(-c2nnn(C3CN(S(=O)(=O)CCC(F)F)C3)n2)cc1NC(=O)c1cnn2ccccc12 [Example 184, N-(5-(2-(1-((3,3-difluoropropyl)sulfonyl)azetidin-3-yl)-2H-tetrazol-5-yl)-2-methylphenyl)pyrazolo[1,5-a]pyridine-3-carboxamide]",8.21
13,"COCCOCCS(=O)(=O)N1CC(n2nnc(-c3ccc(C)c(NC(=O)c4cnn5ccccc45)c3)n2)C1 [Example 185, N-(5-(2-(1-((2-(2-methoxyethoxy)ethyl)sulfonyl)azetidin-3-yl)-2H-tetrazol-5-yl)-2-methylphenyl)pyrazolo[1,5-a]pyridine-3-carboxamide]",6.79
14,Cc1ccc(-n2nnc(C3CN(S(C)(=O)=O)C3)n2)cc1NC(=O)c1cnn2ccccc12 [Example 190],7.64
15,"COC(=O)N1CC(n2nnc(-c3ccc(C)c(NC(=O)c4cnn5ccccc45)c3)n2)C1 [Example 191, methyl 3-(5-(4-methyl-3-(pyrazolo[1,5-a]pyridine-3-carboxamido)phenyl)-2H-tetrazol-2-yl)azetidine-1-carboxylate]",7.38
16,COC(=O)N1CC(n2nnc(-c3ccc(Cl)c(NC(=O)c4cnn5ccccc45)c3)n2)C1 [Example 192],7.97
17,"O=C(Nc1cc(-c2nnn(C3CN(CC(F)(F)F)C3)n2)ccc1Cl)c1cnn2ccccc12 [Example 195, N-(2-chloro-5-(2-(1-(2,2,2-trifluoroethyl)azetidin-3-yl)-2H-tetrazol-5-yl)phenyl)pyrazolo[1,5-a]pyridine-3-carboxamide]",8.06
18,"COC(=O)N1CC(n2nnc(-c3ccc(C)c(NC(=O)c4cnn5ccc(OCCO)cc45)c3)n2)C1 [Example 199, methyl 3-(5-(3-(5-(2-hydroxyethoxy)pyrazolo[1,5-a]pyridine-3-carboxamido)-4-methylphenyl)-2H-tetrazol-2-yl)azetidine-1-carboxylate]",7.53
19,"COCCNc1ccn2ncc(C(=O)Nc3cc(-c4nnn([C@H]5C[C@H](CO)C5)n4)ccc3C)c2c1 [Example 201, N-(5-(2-((1r,3r)-3-(hydroxymethyl)cyclobutyl)-2H-tetrazol-5-yl)-2-methylphenyl)-5-((2-methoxyethyl)amino)pyrazolo[1,5-a]pyridine-3-carboxamide]",7.81
20,"CC(C)(O)Cn1cc(-c2ccn3ncc(C(=O)Nc4cc(-n5nnc(C6CC6)n5)ccc4Cl)c3c2)cn1 [Example 216, N-(2-chloro-5-(5-cyclopropyl-2H-tetrazol-2-yl)phenyl)-5-(1-(2-hydroxy-2-methylpropyl)-1H-pyrazol-4-yl)pyrazolo[1,5-a]pyridine-3-carboxamide]",8.62
